Measured values from PubChem BioAssay AID2060606 (Molecular Pharmacology Branch, DTP, NCI, 2025).

Test system: 922993-354-T-J3-PDC complex spheroids, viability, % test/control
Assay: Anticancer human tumor 922993-354-T-J3-PDC patient-derived endometrial carcinoma cell line growth inhibition [CLK]
Settings: for IC50: curve of first compound; for viability, T/C: stronger effect = lower value
Outline: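 Multi-cell-type spheroids combined patient-derived tumor cells with HUVEC endothelial cells and human mesenchymal stem cells. Paired agents were dosed in half-log steps down from about clinical Cmax, or from 10 microM where Cmax was unknown.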
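Also: spheroids exposed to the agents for 7 days before readout.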

CC(C)CC(NC(=O)C(Cc1ccccc1)NC(=O)c1cnccn1)B(O)O (centres undefined) + CN1CCN(c2cc(C(=O)Nc3cc4cc(-c5cnn(C)c5)ccc4cn3)ccn2)CC1
IC50 (second compound 0.0316 µM): 0.00651 µM | IC50 (second compound 0.1 µM): 0.00663 µM | IC50 (second compound 0.316 µM): < 0.000949 µM | IC50 (second compound 1 µM): < 0.000949 µM | IC50 (second compound 3.16 µM): < 0.000949 µM | IC50 (second compound 10 µM): < 0.000949 µM | viability, T/C (second compound 0.0316 µM, first compound 0.000949 µM): 103% | viability, T/C (second compound 0.0316 µM, first compound 0.003 µM): 85.5% | viability, T/C (second compound 0.0316 µM, first compound 0.00949 µM): 32.6% | viability, T/C (second compound 0.0316 µM, first compound 0.03 µM): 6.15% | viability, T/C (second compound 0.0316 µM, first compound 0.0949 µM): 1.44% | viability, T/C (second compound 0.0316 µM, first compound 0.3 µM): 1.26% | viability, T/C (second compound 0.1 µM, first compound 0.000949 µM): 94.7% | viability, T/C (second compound 0.1 µM, first compound 0.003 µM): 74.5% | viability, T/C (second compound 0.1 µM, first compound 0.00949 µM): 40.2% | viability, T/C (second compound 0.1 µM, first compound 0.03 µM): 8.34% | viability, T/C (second compound 0.1 µM, first compound 0.0949 µM): 1.08% | viability, T/C (second compound 0.1 µM, first compound 0.3 µM): 1.56% | viability, T/C (second compound 0.316 µM, first compound 0.000949 µM): 50.3% | viability, T/C (second compound 0.316 µM, first compound 0.003 µM): 28.6% | viability, T/C (second compound 0.316 µM, first compound 0.00949 µM): 20.6% | viability, T/C (second compound 0.316 µM, first compound 0.03 µM): 6.46% | viability, T/C (second compound 0.316 µM, first compound 0.0949 µM): 1.39% | viability, T/C (second compound 0.316 µM, first compound 0.3 µM): 0.48% | viability, T/C (second compound 1 µM, first compound 0.000949 µM): 0.16% | viability, T/C (second compound 1 µM, first compound 0.003 µM): 1.6% | viability, T/C (second compound 1 µM, first compound 0.00949 µM): 0.98% | viability, T/C (second compound 1 µM, first compound 0.03 µM): 0.44% | viability, T/C (second compound 1 µM, first compound 0.0949 µM): 0.08% | viability, T/C (second compound 1 µM, first compound 0.3 µM): 0.48% | viability, T/C (second compound 3.16 µM, first compound 0.000949 µM): 0.1% | viability, T/C (second compound 3.16 µM, first compound 0.003 µM): 0.68% | viability, T/C (second compound 3.16 µM, first compound 0.00949 µM): 1% | viability, T/C (second compound 3.16 µM, first compound 0.03 µM): 0.07% | viability, T/C (second compound 3.16 µM, first compound 0.0949 µM): 0.83% | viability, T/C (second compound 3.16 µM, first compound 0.3 µM): 0.79% | viability, T/C (second compound 10 µM, first compound 0.000949 µM): 0.08% | viability, T/C (second compound 10 µM, first compound 0.003 µM): 1.39% | viability, T/C (second compound 10 µM, first compound 0.00949 µM): 0.12% | viability, T/C (second compound 10 µM, first compound 0.03 µM): 0.16% | viability, T/C (second compound 10 µM, first compound 0.0949 µM): 2.52% | viability, T/C (second compound 10 µM, first compound 0.3 µM): 2.16%

CC1(C)CCC(CN2CCN(c3ccc(C(=O)NS(=O)(=O)c4ccc(NCC5CCOCC5)c([N+](=O)[O-])c4)c(Oc4cnc5[nH]ccc5c4)c3)CC2)=C(c2ccc(Cl)cc2)C1 + CN1CCN(c2cc(C(=O)Nc3cc4cc(-c5cnn(C)c5)ccc4cn3)ccn2)CC1
IC50 (second compound 0.0316 µM): 6.61 µM | IC50 (second compound 0.1 µM): 5.42 µM | IC50 (second compound 0.316 µM): < 0.0316 µM | IC50 (second compound 1 µM): < 0.0316 µM | IC50 (second compound 3.16 µM): < 0.0316 µM | IC50 (second compound 10 µM): < 0.0316 µM | viability, T/C (second compound 0.0316 µM, first compound 0.0316 µM): 109% | viability, T/C (second compound 0.0316 µM, first compound 0.1 µM): 109% | viability, T/C (second compound 0.0316 µM, first compound 0.316 µM): 97% | viability, T/C (second compound 0.0316 µM, first compound 1 µM): 105% | viability, T/C (second compound 0.0316 µM, first compound 3.16 µM): 112% | viability, T/C (second compound 0.0316 µM, first compound 10 µM): 18.2% | viability, T/C (second compound 0.1 µM, first compound 0.0316 µM): 97.1% | viability, T/C (second compound 0.1 µM, first compound 0.1 µM): 90.4% | viability, T/C (second compound 0.1 µM, first compound 0.316 µM): 79.8% | viability, T/C (second compound 0.1 µM, first compound 1 µM): 97.7% | viability, T/C (second compound 0.1 µM, first compound 3.16 µM): 87.1% | viability, T/C (second compound 0.1 µM, first compound 10 µM): 7.76% | viability, T/C (second compound 0.316 µM, first compound 0.0316 µM): 40% | viability, T/C (second compound 0.316 µM, first compound 0.1 µM): 38% | viability, T/C (second compound 0.316 µM, first compound 0.316 µM): 39.8% | viability, T/C (second compound 0.316 µM, first compound 1 µM): 32.5% | viability, T/C (second compound 0.316 µM, first compound 3.16 µM): 29.9% | viability, T/C (second compound 0.316 µM, first compound 10 µM): 1.44% | viability, T/C (second compound 1 µM, first compound 0.0316 µM): 0.16% | viability, T/C (second compound 1 µM, first compound 0.1 µM): 0.69% | viability, T/C (second compound 1 µM, first compound 0.316 µM): 0.19% | viability, T/C (second compound 1 µM, first compound 1 µM): 0.86% | viability, T/C (second compound 1 µM, first compound 3.16 µM): 1.06% | viability, T/C (second compound 1 µM, first compound 10 µM): 0.1% | viability, T/C (second compound 3.16 µM, first compound 0.0316 µM): 0.36% | viability, T/C (second compound 3.16 µM, first compound 0.1 µM): 0.14% | viability, T/C (second compound 3.16 µM, first compound 0.316 µM): 0.14% | viability, T/C (second compound 3.16 µM, first compound 1 µM): 0.11% | viability, T/C (second compound 3.16 µM, first compound 3.16 µM): 2.58% | viability, T/C (second compound 3.16 µM, first compound 10 µM): 1.27% | viability, T/C (second compound 10 µM, first compound 0.0316 µM): 0.15% | viability, T/C (second compound 10 µM, first compound 0.1 µM): 0.14% | viability, T/C (second compound 10 µM, first compound 0.316 µM): 1.91% | viability, T/C (second compound 10 µM, first compound 1 µM): 0.13% | viability, T/C (second compound 10 µM, first compound 3.16 µM): 0.16% | viability, T/C (second compound 10 µM, first compound 10 µM): 2.48%
